# Laboratory results: patent US8691861B2, “Prodrugs of inhibitors of plasma kallikrein” (ActiveSite Pharmaceuticals, Inc., priority 2011, dated 2014)
# Non-standard residues stand in square brackets, D forms with d. *: point of attachment. CH2Cl = ClC*
# B1: C1-INH: the major endogenous inhibitor of PK (protein, UniProt P05155 23-500, looked up)
# Plasma protease C1 inhibitor: NPNATSSSSQDPESLQDRGEGKVATTVISKMLFVEPILEVSSLPTTNSTTNSATKITANTTDEPTTQPTTEPTTQPTIQPTQPTTQLPTDSPTQPTTGSFCPGPVTLCSDLESHSTEAVLGDALVDFSLKLYHAFSAMKKVETNMAFSPFSIASLLTQVLLGAGENTKTNLESILSYPKDFTCVHQALKGFTTKGVTSVSQIFHSPDLAIRDTFVNASRTLYSSSPRVLSNNSDANLELINTWVAKNTNNKISRLLDSLPSDTRLVLLNAIYLSAKWKTTFDPKKTRMEPFHFKNSVIKVPMMNSKKYPVAHFIDQTLKAKVGQLQLSHNLSLVILVPQNLKHRLEDMEQALSPSVFKAIMEKLEMSKFQPTLLTLPRIKVTTSQDMLSIMEKLEFFDFSYDLNLCGLTEDPDLQVSAMQHQTVLELTETGVEAAAASAISVARTLLVFEVQQPFLFVLWDQQHKFPVFMGRVYDPRA
# Tests used:
# [1] = cited from earlier work
# [2] = LPS or bacterial induced sepsis in animals; cited from earlier work
# [3] = angiotensin-II-induced; cited from earlier work
# [4] = diabetic animals; cited from earlier work
# [5] = rat model of ischemic stroke; cited from earlier work
# [6] = model of hemorrhagic stroke; cited from earlier work
# [7] = rat models of arthritis; cited from earlier work
# [8] = Conversion of prodrug in vivo: plasma levels of the active plasma kallikrein inhibitor after oral dosing of the prodrug; design: species or system Sprague-Dawley rats; settings: rats, 25 mg/kg oral in PEG400
# Protocol: Young male Sprague-Dawley rats were orally dosed at 25 mg/kg with the prodrug 1-(4-fluorophenyl)-N-[[4-(N′-hydroxycarbamimidoyl)phenyl]methyl]-2,5-dimethyl-pyrrole-3-carboxamide dissolved in PEG400. Blood was removed at various time intervals via an arterial catheter into a citrated collection tube, and plasma generated by centrifugation. The concentration of the active plasma kallikrein inhibitor N-[(4-carbamimidoylphenyl)methyl]-1-(4-fluorophenyl)-2,5-dimethyl-pyrrole-3-carboxamide in the plasma samples were determined using LC/MS/MS.
# [9] = mouse model of middle cerebral artery occlusion; cited from earlier work
# [10] = cited from earlier work; remark: listed apart in the source
molecule,measurement,setting,value
NC(N)=NCCC[C@@H](N)C(=O)N[C@@H](CCCN=C(N)N)C(=O)N1CCC[C@H]1C(=O)N1C[C@H](O)C[C@H]1C(=O)NCC(=O)N[C@@H](Cc1cccs1)C(=O)N[C@@H](CO)C(=O)N1Cc2ccccc2C[C@@H]1C(=O)N1[C@H](C(=O)N[C@@H](CCCN=C(N)N)C(=O)O)C[C@@H]2CCCC[C@@H]21 [icatibant],effectiveness in treating HAE,[1],effective
H-[dP]-Phe-Arg-CH2Cl,lesions,[2],reduce
N=C(N)c1ccc(CNC(=O)c2cnn(Cc3ccccc3)c2)cc1 [ASP-440],elevated systolic blood pressure,[3],reduce
same,plasma leakage into the retina,[4],inhibits
same,cerebrovascular edema,[5],reduce
same,infarction volume,[5],reduce
same,expansion of intracerebral hemorrhage,[6],reduce
Cl.NCC1CCC(C(=O)N[C@@H](Cc2ccccc2)C(=O)Nc2ccc(CC(=O)O)cc2)CC1 (stereo partly shown) [PKSI-527],joint swelling,[7],reduce
"Cc1cc(C(=O)NCc2ccc(/C(N)=N/O)cc2)c(C)n1-c1ccc(F)cc1 [1-(4-fluorophenyl)-N-[[4-(N′-hydroxycarbamimidoyl)phenyl]methyl]-2,5-dimethyl-pyrrole-3-carboxamide]",absorption from the gastrointestinal tract following oral dosing,[8],absorbed from the gastrointestinal tract
same,conversion in vivo into the active compound,[8],effectively converted in vivo
B1,infarct size,[9],reduced
same,lesions,[2],reduce
same,clinical outcome in sepsis patients,[10],Clinical improvement
